Measured values taken from ChEMBL document CHEMBL1134687, “Synthesis and structure-activity relationships of naphthamides as dopamine D3 receptor ligands” (J Med Chem, 2001).

Key:
[1] = biological target: D(2) dopamine receptor (Rattus norvegicus, UniProt P61169); assay: Binding affinity for dopamine receptor D2 long expressed in Sf9 cells using [125I]IABN radioligand.
[2] = biological target: D(3) dopamine receptor (Rattus norvegicus, UniProt P19020); assay: biochemical
Description: Binding affinity for dopamine receptor D3 expressed in Sf9 cells using [125I]IABN the radioligand.

[3] = biological target: Sigma 2 receptor; design: species or system Rattus norvegicus, Liver, Membrane
[4] = biological target: Sigma 2 receptor; assay: Binding affinity for sigma-2 receptor measured on rat liver membranes using [3H]DTG as radioligand in the presence of (+)-pentazocine; design: species or system Membrane

Sequence of D(2) dopamine receptor (P61169 whole entry): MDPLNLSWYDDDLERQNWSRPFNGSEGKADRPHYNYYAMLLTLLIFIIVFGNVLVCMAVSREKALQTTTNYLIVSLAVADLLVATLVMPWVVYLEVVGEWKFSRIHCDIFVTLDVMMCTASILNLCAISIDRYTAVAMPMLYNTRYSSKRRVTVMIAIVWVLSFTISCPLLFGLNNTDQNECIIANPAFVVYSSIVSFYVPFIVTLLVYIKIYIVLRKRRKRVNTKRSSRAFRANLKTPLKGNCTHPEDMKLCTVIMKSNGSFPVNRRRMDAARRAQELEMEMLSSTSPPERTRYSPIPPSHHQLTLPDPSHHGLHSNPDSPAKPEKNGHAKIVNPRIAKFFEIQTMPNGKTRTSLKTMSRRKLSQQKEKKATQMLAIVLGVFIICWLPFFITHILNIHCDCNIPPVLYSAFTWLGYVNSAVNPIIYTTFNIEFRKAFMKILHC
Sequence of D(3) dopamine receptor (P19020 whole entry): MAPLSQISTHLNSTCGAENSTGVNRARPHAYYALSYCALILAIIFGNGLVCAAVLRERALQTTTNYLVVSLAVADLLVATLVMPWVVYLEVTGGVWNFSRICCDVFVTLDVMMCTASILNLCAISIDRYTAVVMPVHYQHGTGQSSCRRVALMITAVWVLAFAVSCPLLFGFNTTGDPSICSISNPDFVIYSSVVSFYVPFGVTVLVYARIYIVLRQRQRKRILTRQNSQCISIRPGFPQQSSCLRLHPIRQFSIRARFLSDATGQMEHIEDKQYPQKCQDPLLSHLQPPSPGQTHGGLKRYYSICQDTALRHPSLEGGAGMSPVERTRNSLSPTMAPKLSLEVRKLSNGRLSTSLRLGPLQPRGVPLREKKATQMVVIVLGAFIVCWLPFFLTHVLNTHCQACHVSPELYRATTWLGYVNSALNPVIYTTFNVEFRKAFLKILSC

COc1c(C(=O)NC[C@@H]2CCCN2C2CCC2)cc(Br)c2ccccc12
Ki [1]: 11.8 nM

COc1c(C(=O)NC2CC3CCCC(C2)N3C2CCCCCC2)cc(Br)c2ccccc12 (stereo not drawn)
Ki [2]: 41 nM | Ki [1]: 152 nM | Ki [3]: 7.9 nM

COc1c(C(=O)N[C@@H]2CCN(Cc3ccccc3)C2)cc(Br)c2ccccc12
Ki [2]: 1.6 nM | Ki [1]: 12 nM | Ki [3]: 20.8 nM

COc1c(C(=O)N[C@@H]2CCN(C3C4CCCC3CCC4)C2)cc(Br)c2ccccc12 (stereo partly drawn)
Ki [2]: 13.2 nM | Ki [1]: 75 nM | Ki [3]: 279 nM

COc1c(C(=O)NC[C@@H]2CCCN2C2CCCCCC2)cc(Br)c2ccccc12
Ki [2]: 50 nM

COc1c(C(=O)NC[C@H]2CCCN2C2[C@H]3C[C@@H]4C[C@@H](C[C@H]2C4)C3)cc(Br)c2ccccc12 (stereo partly drawn)
Ki [2]: 2.6 nM | Ki [3]: 317 nM

COc1c(C(=O)NC[C@H]2CCCN2C2CCCC2)cc(Br)c2ccccc12
Ki [1]: 157 nM | Ki [3]: 35 nM

COc1c(C(=O)N[C@H]2CCN(C3C4CCCC3CCC4)C2)cc(Br)c2ccccc12 (stereo partly drawn)
Ki [2]: 12 nM | Ki [1]: 132 nM | Ki [3]: 137 nM

COc1c(C(=O)NC2CC3CCCC(C2)N3C2CCCCC2)cc(Br)c2ccccc12 (stereo not drawn)
Ki [2]: 48 nM | Ki [1]: 150 nM | Ki [3]: 4.8 nM

COc1c(C(=O)NC2CCN(C3[C@H]4C[C@@H]5C[C@@H](C[C@H]3C5)C4)CC2)cc(Br)c2ccccc12 (stereo partly drawn)
Ki [2]: 92 nM | Ki [1]: 96 nM | Ki [3]: 55 nM

COc1c(C(=O)N[C@H]2CCN(Cc3ccccc3)C2)cc(Br)c2ccccc12
Ki [2]: 1 nM | Ki [1]: 9.7 nM | Ki [3]: 42 nM

COc1c(C(=O)NC[C@H]2CCCN2C2CCC2)cc(Br)c2ccccc12
Ki [1]: 277 nM

COc1c(C(=O)N[C@@H]2CCN(C3[C@H]4C[C@@H]5C[C@@H](C[C@H]3C5)C4)C2)cc(Br)c2ccccc12 (stereo partly drawn)
Ki [2]: 13 nM | Ki [3]: 21.4 nM

COc1c(C(=O)NC2CCN(C3CCCCC3)CC2)cc(Br)c2ccccc12
Ki [2]: 430 nM | Ki [1]: 94 nM | Ki [3]: 2.1 nM

COc1c(C(=O)NC2CCN(Cc3ccccc3)CC2)cc(Br)c2ccccc12
Ki [2]: 1.1 nM | Ki [4]: 35 nM

COc1c(C(=O)N[C@H]2CCN(C3[C@H]4C[C@@H]5C[C@@H](C[C@H]3C5)C4)C2)cc(Br)c2ccccc12 (stereo partly drawn)
Ki [2]: 0.4 nM | Ki [3]: 70 nM

COc1c(C(=O)NC[C@H]2CCCN2C2CCCCCC2)cc(Br)c2ccccc12
Ki [2]: 2.4 nM

COc1c(C(=O)NC2CC3CCCC(C2)N3Cc2ccccc2)cc(Br)c2ccccc12 (stereo not drawn)
Ki [2]: 0.04 nM | Ki [1]: 0.2 nM | Ki [3]: 250 nM

COc1c(C(=O)NC[C@@H]2CCCN2C2CCCCC2)cc(Br)c2ccccc12
Ki [2]: 334 nM | Ki [1]: 442 nM | Ki [3]: 147 nM

COc1c(C(=O)NC[C@H]2CCCN2C2CCCCC2)cc(Br)c2ccccc12
Ki [2]: 3.2 nM | Ki [1]: 58 nM | Ki [3]: 25 nM

COc1c(C(=O)NC2CCN(C3CCCCCC3)CC2)cc(Br)c2ccccc12
Ki [2]: 58 nM | Ki [1]: 23 nM | Ki [3]: 2.6 nM

COc1c(C(=O)NC[C@H]2CCCN2Cc2ccccc2)cc(Br)c2ccccc12
Ki [2]: 1.4 nM | Ki [1]: 11.4 nM | Ki [3]: 207 nM

COc1c(C(=O)NC[C@@H]2CCCN2C2[C@H]3C[C@@H]4C[C@@H](C[C@H]2C4)C3)cc(Br)c2ccccc12 (stereo partly drawn)
Ki [2]: 68 nM | Ki [3]: 141 nM

COc1c(C(=O)N[C@@H]2CCN(C3CCCCCC3)C2)cc(Br)c2ccccc12
Ki [2]: 2.9 nM | Ki [1]: 19 nM | Ki [3]: 10 nM

COc1c(C(=O)NC2CCN(C3C4CCCC3CCC4)CC2)cc(Br)c2ccccc12 (stereo not drawn)
Ki [2]: 1430 nM | Ki [1]: 771 nM | Ki [3]: 2.4 nM

COc1c(C(=O)NC[C@@H]2CCCN2Cc2ccccc2)cc(Br)c2ccccc12
Ki [2]: 14.6 nM | Ki [1]: 151 nM | Ki [3]: 222 nM

COc1c(C(=O)N[C@H]2CCN(C3CCCC3)C2)cc(Br)c2ccccc12
Ki [2]: 2.5 nM | Ki [1]: 19 nM | Ki [3]: 27 nM

COc1c(C(=O)N[C@@H]2CCN(C3CCCCC3)C2)cc(Br)c2ccccc12
Ki [2]: 5.7 nM | Ki [1]: 74 nM | Ki [3]: 9.8 nM

COc1c(C(=O)N[C@@H]2CCN(C3CCCC3)C2)cc(Br)c2ccccc12
Ki [2]: 75 nM | Ki [1]: 283 nM | Ki [3]: 15.3 nM

COc1c(C(=O)NC2CCN(C3CCCC3)CC2)cc(Br)c2ccccc12
Ki [2]: 899 nM | Ki [1]: 210 nM | Ki [3]: 6.8 nM

COc1c(C(=O)NC[C@@H]2CCCN2C2CCCC2)cc(Br)c2ccccc12
Ki [1]: 59 nM | Ki [3]: 51 nM

COc1c(C(=O)NC[C@@H]2CCCN2C2C3CCCC2CCC3)cc(Br)c2ccccc12 (stereo partly drawn)
Ki [2]: 7.5 nM | Ki [1]: 26 nM | Ki [3]: 267 nM

COc1c(C(=O)N[C@H]2CCN(C3CCCCCC3)C2)cc(Br)c2ccccc12
Ki [2]: 0.2 nM | Ki [1]: 1.8 nM

COc1c(C(=O)N[C@H]2CCN(C3CCCCC3)C2)cc(Br)c2ccccc12
Ki [2]: 0.8 nM | Ki [3]: 25 nM

COc1cc(I)cc(C(=O)NC2CC3CCCC(C2)N3Cc2ccccc2)c1OC (stereo not drawn)
Ki [2]: 0.04 nM | Ki [1]: 0.05 nM | Ki [3]: 419 nM
